This is an account of results in patent US12128173B2, “Dry powder drug delivery system and methods” (MannKind Corporation, priority 2012, dated 2024).

Series [1] in a line: FDKP pharmacokinetics after inhalation, DPI 1 vs MEDTONE (Example 8). The class given is in vivo, healthy volunteers. The text has this: The MEDTONE® inhaler system was used for comparison. […] Powder used were crystalline powder formulations.
During an inhalation maneuver, the patient was instructed to maintain a nominal pressure differential of 4-6 kPa combined with a short inhalation of 3-4 seconds or a long inhalation of 6-7 seconds. To generate a “hard” inhalation, the subject provided a nominal inhalation time of about 6.5 seconds and a peak pressure of 7 kPa. Conversely, to generate an “easy” inhalation, the subject provided a nominal inhalation time of about 6.5 seconds and a peak pressure of 5 kPa. Coupled with the inhalation monitoring apparatus, gravimetric assessment of the powder mass discharged from the cartridge was performed. This enabled a linkage between inhalation maneuver during dosing, cartridge discharge mass and pharmacokinetic profile determinations for each subject.
The study was an open-label, crossover, 2-part study in healthy volunteers.
Part 2 was carried out as a 2-part, 2-way crossover study for evaluating the effect of flow rate (15 versus 30 LPM) and inhalation time (3 versus 6 seconds). For each parameter tested (i.e., flow rate, and inhalation time), ten subjects were crossed over for each parameter with 20 subjects total for all of the parameters. Pharmacokinetics of FDPK was assessed with each treatment from blood samples taken from the subjects.

A short description of series [2]: FDKP bioavailability versus intravenous bolus of radiolabeled FDKP. As to conditions: model analysis.
Series [3] in a line: In vitro powder emptying and VMGD, DPI 2 vs MTDS (Example 7). The class given is physicochemical. Particulars: 4 kPa.
Source text: In vitro powder performance for these systems was compared for various parameter of inhaler performance. For DPI 2 a single discharge per cartridge was used as compared to two discharges per cartridge in the MEDTONE® system.
Particle sizing by laser diffraction and quantification of emitted mass as described above were used in these experiments. A laser diffraction instrument (Sympatec HELOS) was adapted with a novel pressurized inhaler chamber to facilitate analysis of powder plumes. MTDS cartridges were discharged twice per determination versus once with DPI 2.
A short description of series [4]: O-series vs U-series inhaler: discharge and particle size of crystalline and amorphous powders (Example 14). The class given is physicochemical. As to conditions: fill 25 mg, 4 kPa; for X84 avg: in µm (unit assumed). As to the method:
These experiments were conducted to test various inhaler designs in trying to improve percent dose discharge or increase device emptying to acceptable ranges for certain types of powders used. […] In these experiments, therefore, two types of dry powder inhalers were designed and built. An O-series (FIGS. 49 and 50) dry powder inhaler wherein the inhaler comprises rigid conduits which generate a tumbling, recirculating action of an airflow through the powder container during an inhalation in an O-shape prior to the airflow exiting the container. A second inhaler or U-series was also designed and built for comparison wherein the dry powder inhaler comprised a rigid air conduit through the container substantially U-shaped and configured with a deflector so that in use an airflow entering the container redirects the airflow within the container void or space in a U-shape/semilunar path or downwardly prior to exiting the container. Powders tested were either crystalline or amorphous.
The rigid flow conduits as illustrated in FIGS. 49 and 51 can be adapted to any type of dry powder inhaler for delivering different types of powder compositions. In these experiments, crystalline and amorphous powders were tested with the two types of air flow conduits designed into the same type of inhalers, a single use disposable. […] Inhaler performance was tested and evaluated from measurements using various parameters, such as pressure differential, powder content prior to and after testing of various powders via a simulated single inhalation. The particle size distribution of the discharged powder plume for each inhaler used was also measured as described in Example 7 above.

A short description of the next series: Solubility of FDKP by pH. Type of series: physicochemical.
Series [5] can be described thus: VMGD and container emptying by laser diffraction, DPI 2 vs MEDTONE (Example 6). Type of series: physicochemical. As to conditions: SSA 55, 4 kPa.
Source text: Typically, the geometric size of the emitted powder includes a volumetric distribution characterized by the median particle size, VMGD.
A short description of series [6]: Powder flowability: Hausner ratio, compressibility (Carr's) index, angle of repose, critical orifice. Type of series: physicochemical. The text has this:
FDKP microparticles either unmodified or containing a drug, for example insulin, constitute highly cohesive powders.

Series [7] in a line: Post prandial glucose excursions during meal challenges. The class given is in vivo, healthy volunteers. Particulars: DPI 2 vs MEDTONE, doses not titrated.

`O=C(O)/C=C/C(=O)NCCCCC1NC(=O)C(CCCCNC(=O)/C=C/C(=O)O)NC1=O` (stereo not drawn) [FDKP, 3,6-bis(N-fumaryl-4-aminobutyl)-2,5-diketopiperazine]: the “better delivery of FDKP into the systemic circulation than MEDTONE” value in series [1] (DPI 1 vs MEDTONE) is listed as “about 30%”. Also, the “AVG mean AUC fdkp per emitted fdkp mass” value in series [1] (Part 1, DPI 1, 10 mg, nominal time and inhalation effort) worked out at 3495 ng*min/mL*mg fdkp; in series [1] (Part 1, MT (MEDTONE), 10 mg, nominal time and inhalation effort), 1934 ng*min/mL*mg fdkp; in series [1] (Part 2, DPI 1, 10 mg, long inhalation time), 3289 ng*min/mL*mg fdkp; in series [1] (Part 2, DPI 1, 10 mg, short inhalation time), 3310 ng*min/mL*mg fdkp. The “% of the FDKP delivered into the systemic circulation” value in series [2] (DPI 2, single inhalation, 6.7 mg total fill FDKP-insulin (FDKP about 6 mg)) stood at 64%; in series [2] (MEDTONE, two inhalations, FDKP-insulin formulation), 46%. In addition, the “Ave. VMGD” value in series [3] (DPI 2, fill 10 mg, single discharge) is 6.84 μm; in series [3] (MEDTONE (MTDS), fill 10 mg FDKP, two discharges), 21.21 μm. The X16 avg in series [4] (Sample 1, O-series) was 1.9 µm; in series [4] (Sample 2, U-series) it was 2.76 µm. Besides, the X50 avg in series [4] (Sample 1, O-series) came to 6.86 μm; in series [4] (Sample 2, U-series), 11.19 μm. Besides, the X84 avg was 21.55 in series [4] (Sample 1, O-series) and 36.51 in series [4] (Sample 2, U-series). The solubility result in the series “Solubility of FDKP by pH” (at neutral or basic pH) is listed as “readily soluble”; in the series “Solubility of FDKP by pH” (in acid) it was “low solubility”. For the same compound, the VMGD in series [5] (DPI 2, 56% trans) turned out to be 6.800 micron; in series [5] (MEDTONE, 56% trans), 21.200 micron. Also, the angle of repose in series [6] is on record as 40 °.

Consider insulin, for which the “post prandial glucose excursions” value in series [7] is “generally comparable glucose excursions”.
